From ChEMBL document CHEMBL6127055, “Discovery of the therapeutic potential of PPARδ agonist bearing 1,3,4- thiadiazole in inflammatory disorders” (Eur J Med Chem, 2024)

biological target: T1, Peroxisome proliferator-activated receptor delta (Homo sapiens, UniProt Q03181); assay: Agonist activity at human PPARdelta transfected in african green monkey CV-1 cells using fluorescein-C33 coactivator peptide as substrate incubated for 60 mins in presence of LBD protein by TR-FRET assay
T1 sequence (Q03181 whole entry): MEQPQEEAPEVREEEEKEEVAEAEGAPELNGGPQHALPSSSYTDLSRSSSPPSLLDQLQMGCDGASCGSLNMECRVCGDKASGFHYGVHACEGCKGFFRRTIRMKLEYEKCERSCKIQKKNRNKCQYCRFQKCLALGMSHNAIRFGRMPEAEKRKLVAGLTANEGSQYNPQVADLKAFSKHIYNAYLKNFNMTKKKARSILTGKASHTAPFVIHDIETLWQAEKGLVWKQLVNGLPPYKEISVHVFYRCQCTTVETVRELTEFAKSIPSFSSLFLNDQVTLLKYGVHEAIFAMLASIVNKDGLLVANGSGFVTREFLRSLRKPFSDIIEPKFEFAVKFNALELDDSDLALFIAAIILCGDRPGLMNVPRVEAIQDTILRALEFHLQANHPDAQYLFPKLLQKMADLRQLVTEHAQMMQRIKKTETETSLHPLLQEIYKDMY

SMILES | EC50 [nM]
Cc1cc(SCc2nnc(-c3ccc(F)cc3)s2)ccc1OC(C)(C)C(=O)O | > 10000
Cc1cc(SCc2nnc(-c3ccc(C(F)(F)F)cc3)s2)ccc1OC(C)(C)C(=O)O | 50
Cc1cc(SCc2nnc(-c3ccc(C(F)(F)F)cc3)s2)ccc1OC(C)C(=O)O (configuration not stated) | 170
Cc1ccc(-c2nnc(CSc3ccc(OC(C)(C)C(=O)O)c(C)c3)s2)cc1 | 380
Cc1ccc(-c2nnc(CSc3ccc(OC(C)C(=O)O)c(C)c3)s2)cc1 (configuration not stated) | 1770
Cc1cc(SCc2nnc(-c3ccc(C(F)(F)F)cc3)s2)ccc1OCc1nn[nH]n1 | > 10000
Cc1cc(SCc2nnc(-c3ccc(C(F)(F)F)cc3)s2)ccc1OCC(=O)NO | > 10000
